Calls of active or inactive are those of the source. No cut-off for these calls is given here.
Experiments:
[1] = system: Paracentrotus lividus; experiment: Antiproliferative activity in sea urchin embryo assessed as antimitotic activity by measuring cleavage alteration exposed for 8 to 20 mins after fertilization and 45 to 55 mins before first mitotic cycle completion measured 2.5 to […] after fertilization; assay type: functional
[2] = system: Paracentrotus lividus; experiment: Antiproliferative activity in sea urchin embryo assessed as antimitotic activity by measuring cleavage arrest exposed for 8 to 20 mins after fertilization and 45 to 55 mins before first mitotic cycle completion measured 2.5 to […] after fertilization; assay type: functional
[3] = system: Paracentrotus lividus; experiment: Antiproliferative activity in sea urchin embryo assessed as destabilization of microtubule by measuring embryo spinning after 15 mins to 20 hrs; assay type: functional
[4] = system: Paracentrotus lividus; experiment: Antiproliferative activity in sea urchin embryo assessed as destabilization of microtubule by tuberculate eggs after 15 mins to 20 hrs; assay type: functional, organism-based
[5] = Cytotoxicity against human NCI60 cells; assay type: functional
[6] = Cytotoxicity against human HCT116 cells; assay type: functional; conditions: HCT-116
[7] = Cytotoxicity against human HCT15 cells; assay type: functional; conditions: HCT-15
[8] = system: HT-29; experiment: Cytotoxicity against human HT-29 cells; assay type: functional
[9] = system: KM12; experiment: Cytotoxicity against human KM12 cells; assay type: functional
[10] = system: SW-620; experiment: Cytotoxicity against human SW620 cells; assay type: functional
[11] = system: SF-268; experiment: Cytotoxicity against human SF268 cells; assay type: functional
[12] = system: SF-539; experiment: Cytotoxicity against human SF539 cells; assay type: functional; conditions: read-out: pGI50 (converted)
[13] = system: SNB-19; experiment: Cytotoxicity against human SNB19 cells; assay type: functional
[14] = system: U-251; experiment: Cytotoxicity against human U251 cells; assay type: functional
[15] = system: LOX IMVI; experiment: Cytotoxicity against human LOXIMVI cells; assay type: functional
[16] = system: Malme-3M; experiment: Cytotoxicity against human MALME-3M cells; assay type: functional
[17] = system: M14; experiment: Cytotoxicity against human M14 cells; assay type: functional
[18] = system: MDA-MB-435; experiment: Cytotoxicity against human MDA-MB-435 cells; assay type: functional; conditions: read-out: pGI50 (converted)
[19] = system: SK-MEL-2; experiment: Cytotoxicity against human SK-MEL-2 cells; assay type: functional
[20] = system: SK-MEL-28; experiment: Cytotoxicity against human SK-MEL-28 cells; assay type: functional
[21] = system: SK-MEL-5; experiment: Cytotoxicity against human SK-MEL-5 cells; assay type: functional
[22] = Cytotoxicity against human UACC257 cells; assay type: functional; conditions: UACC-257
[23] = Cytotoxicity against human UACC62 cells; assay type: functional; conditions: UACC-62
[24] = system: IGROV-1; experiment: Cytotoxicity against human IGROV1 cells; assay type: functional
[25] = Cytotoxicity against human OVCAR3 cells; assay type: functional; conditions: OVCAR-3, read-out: pGI50 (converted)
[26] = Cytotoxicity against human OVCAR4 cells; assay type: functional; conditions: OVCAR-4
[27] = Cytotoxicity against human OVCAR5 cells; assay type: functional; conditions: OVCAR-5
[28] = Cytotoxicity against human OVCAR8 cells; assay type: functional; conditions: OVCAR-8, read-out: pGI50 (converted)
[29] = Cytotoxicity against human NCI-ADR-RES cells; assay type: functional; conditions: read-out: pGI50 (converted)
[30] = Cytotoxicity against human SKOV3 cells; assay type: functional; conditions: SK-OV-3
[31] = system: 786-0; experiment: Cytotoxicity against human 786-0 cells; assay type: functional
[32] = system: A498; experiment: Cytotoxicity against human A498 cells; assay type: functional
[33] = system: ACHN; experiment: Cytotoxicity against human ACHN cells; assay type: functional
[34] = system: RXF 393; experiment: Cytotoxicity against human RXF393 cells; assay type: functional; conditions: read-out: pGI50 (converted)
[35] = system: SN12C; experiment: Cytotoxicity against human SN12C cells; assay type: functional
[36] = system: TK-10; experiment: Cytotoxicity against human TK10 cells; assay type: functional
[37] = Cytotoxicity against human UO31 cells; assay type: functional; conditions: UO-31
[38] = Cytotoxicity against human PC3 cells; assay type: functional; conditions: PC-3
[39] = system: DU-145; experiment: Cytotoxicity against human DU145 cells; assay type: functional
[40] = system: MCF7; experiment: Cytotoxicity against human MCF7 cells; assay type: functional
[41] = system: MDA-MB-231; experiment: Cytotoxicity against human MDA-MB-231 cells; assay type: functional
[42] = Cytotoxicity against human Hs578T cells; assay type: functional; conditions: Hs-578T
[43] = system: BT-549; experiment: Cytotoxicity against human BT549 cells; assay type: functional
[44] = system: T47D; experiment: Cytotoxicity against human T47D cells; assay type: functional
[45] = system: MDA-MB-468; experiment: Cytotoxicity against human MDA-MB-468 cells; assay type: functional
[46] = system: SF-295; experiment: Cytotoxicity against human SF295 cells; assay type: functional
[47] = system: SNB-75; experiment: Cytotoxicity against human SNB75 cells; assay type: functional
[48] = system: HOP-92; experiment: Cytotoxicity against human HOP92 cells; assay type: functional
[49] = system: CCRF-CEM; experiment: Cytotoxicity against human CCRF-CEM cells; assay type: functional
[50] = system: HL-60(TB); experiment: Cytotoxicity against human HL-60(TB) cells; assay type: functional
[51] = system: K562; experiment: Cytotoxicity against human K562 cells; assay type: functional
[52] = system: MOLT-4; experiment: Cytotoxicity against human MOLT4 cells; assay type: functional
[53] = system: RPMI-8226; experiment: Cytotoxicity against human RPMI8226 cells; assay type: functional
[54] = system: SR; experiment: Cytotoxicity against human SR cells; assay type: functional
[55] = system: A549; experiment: Cytotoxicity against human A549 cells; assay type: functional
[56] = system: HOP-62; experiment: Cytotoxicity against human HOP62 cells; assay type: functional
[57] = system: NCI-H226; experiment: Cytotoxicity against human NCI-H226 cells; assay type: functional
[58] = system: NCI-H23; experiment: Cytotoxicity against human NCI-H23 cells; assay type: functional
[59] = system: NCI-H322M; experiment: Cytotoxicity against human NCI-H322M cells; assay type: functional
[60] = system: NCI-H460; experiment: Cytotoxicity against human NCI-H460 cells; assay type: functional
[61] = system: NCI-H522; experiment: Cytotoxicity against human NCI-H522 cells; assay type: functional
[62] = system: COLO 205; experiment: Cytotoxicity against human COLO205 cells; assay type: functional
[63] = system: HCC 2998; experiment: Cytotoxicity against human HCC2998 cells; assay type: functional
[64] = target: Tubulin (Bos taurus, UniProt Q6B856+Q862L2+Q862F3); experiment: Inhibition of bovine tubulin polymerization by turbidity assay; assay type: protein assay

Work on `COc1cc2c(c(OC)c1OC)-c1ccc(OC)c(=O)cc1[C@@H](NC(C)=O)CC2` [COLCHICINE] yielded an EC [1] of 50 µM, an EC [2] of 100 µM and an EC [3] of 50 µM. For the same compound, the Activity [4] was “Active” and the GI50 [5] was 132 nM.
In the case of `COc1cccc(Cn2c(-c3nonc3NC(C)=O)nc3ccccc32)c1`, the EC [1] is reported as 1 µM, the EC [2] is reported as over 4 µM and the EC [3] is reported as over 4 µM. The GI50 [5] was 3980 nM.
`COc1cc(Cn2c(-c3nonc3N)nc3ccccc32)ccc1C` gave a GI50 [6] of 513 nM, a GI50 [7] of 457 nM and a GI50 [8] of 363 nM. The GI50 [9] was 437 nM, the GI50 [10] was 331 nM and the GI50 [11] was 776 nM. It also gave a GI50 [12] of 200 nM, a GI50 [13] of 724 nM and a GI50 [14] of 537 nM. It also gave a GI50 [15] of 661 nM, a GI50 [16] of 525 nM and a GI50 [17] of 550 nM. The GI50 [18] was 170 nM, the GI50 [19] was 407 nM and the GI50 [20] was 794 nM. For the same compound, the GI50 [21] was 372 nM, the GI50 [22] was 417 nM and the GI50 [23] was 617 nM. It also gave a GI50 [24] of 724 nM, a GI50 [25] of 309 nM and a GI50 [26] of 646 nM. It also gave a GI50 [27] of 776 nM, a GI50 [28] of 759 nM and a GI50 [29] of 389 nM. The GI50 [30] was 537 nM, the GI50 [31] was 646 nM and the GI50 [32] was 89.1 nM. The GI50 [33] was 724 nM, the GI50 [34] was 269 nM and the GI50 [35] was 676 nM. For the same compound, the GI50 [36] was 1410 nM, the GI50 [37] was 575 nM and the GI50 [38] was 339 nM. The GI50 [39] was 513 nM, the GI50 [40] was 389 nM and the GI50 [41] was 1450 nM. For the same compound, the GI50 [42] was 288 nM, the GI50 [43] was 513 nM and the GI50 [44] was 575 nM. The GI50 [45] was 229 nM, the GI50 [46] was 389 nM and the GI50 [47] was 263 nM. For the same compound, the GI50 [48] was 363 nM, the EC [1] was 0.2 µM and the EC [2] was 2 µM. For the same compound, the EC [3] was over 4 µM, the Activity [4] was “Active” and the GI50 [5] was 479 nM. The GI50 [49] was 380 nM, the GI50 [50] was 275 nM and the GI50 [51] was 389 nM. It also gave a GI50 [52] of 646 nM, a GI50 [53] of 447 nM and a GI50 [54] of 389 nM. The GI50 [55] was 562 nM, the GI50 [56] was 617 nM and the GI50 [57] was 955 nM. For the same compound, the GI50 [58] was 1150 nM, the GI50 [59] was 537 nM and the GI50 [60] was 355 nM. It also gave a GI50 [61] of 251 nM, a GI50 [62] of 372 nM and a GI50 [63] of 1450 nM.
With `Nc1nonc1-c1nc2ccccc2n1Cc1ccc(F)cc1` the EC [1] was 2 µM, the EC [2] was over 4 µM and the EC [3] was over 4 µM. For the same compound, the GI50 [5] was 8910 nM.
`Nc1nonc1-c1nc2ccccc2n1Cc1cccc2ccccc12` gave an IC50 [64] of 7030 nM.
For `Nc1nonc1-c1nc2ccccc2n1Cc1cccc(C(F)(F)F)c1`, the IC50 [64] was 13270 nM.

Reference: ChEMBL document CHEMBL3421596, “A facile synthesis and microtubule-destabilizing properties of 4-(1H-benzo[d]imidazol-2-yl)-furazan-3-amines” (Eur J Med Chem, 2015)
